Experimental data taken from patent US6455540B1, “Methods of use of quinolone compounds against anaerobic pathogenic bacteria” (priority 1999, dated 2002).
Values after ≈ are worked out from the molar mass of the structure shown.

Key:
Clostridium ramosum = details: prior study (Goldstein, et al.), 14 isolates; cited from earlier work
F. necrophorum = experiment: Agar dilution MIC; type: cell-based; details: Fusobacterium necrophorum; read-out: concentration to which strains were susceptible (MIC)
[1] = system: certain Prevotella strains; details: Goldstein, et al.; cited from earlier work
F. ulcerans = experiment: Agar dilution MIC; type: cell-based; details: Fusobacterium ulcerans
Anaerobiospirillum spp. = experiment: Agar dilution MIC; type: cell-based
peptostreptococci = experiment: Agar dilution MIC, peptostreptococci as a group; type: cell-based, P. asaccharolyticus, P. magnus, P. micros, P. prevotii; details: 45 strains of peptostreptococci from 4 species; read-out: concentration to which all strains were susceptible (MIC)
Gram-positive anaerobes = experiment: Agar dilution activity against Gram-positive anaerobes; type: cell-based; details: for activity compared with trovafloxacin: Gram-positive strains
[2] = system: Porphyromonas spp. [P. asaccharolytica, P. canoris, P. gingivalis, P. macaccae]; experiment: Agar dilution MIC, Porphyromonas spp. as a group; type: cell-based; details: read-out: concentration to which all strains were susceptible (MIC)
B. distasonis = details: Goldstein, et al.; cited from earlier work
Bacteroides fragilis = details: Goldstein, et al.; cited from earlier work
Fusobacterium naviforme = experiment: Agar dilution MIC; type: cell-based; details: read-out: concentration to which strains were susceptible (MIC)

SMILES: CO/N=C1\CN(c2nc3c(cc2F)c(=O)c(C(=O)O)cn3C2CC2)CC1CN (racemic) [Gemifloxacin, (R,S)-7-(3-aminomethyl-4-methoxyiminopyrrolidin-1-yl)-1-cyclopropyl-6-fluoro-4-oxo-1,4-dihydro-1,8-naphthyridine-3-carboxylic acid]
- MIC90 (Clostridium ramosum): 8 µg/mL (≈ 20.5 µM)
- MIC (F. necrophorum): ≤ 2 µg/mL
- activity [1]: showed activity
- MIC90 (F. ulcerans): ≥ 4 µg/mL
- MIC90 (Anaerobiospirillum spp.): ≤ 2 µg/mL
- MIC (peptostreptococci): ≤ 0.25 µg/mL
- activity (Gram-positive anaerobes): good activity
- activity compared with trovafloxacin (Gram-positive anaerobes): generally more active than trovafloxacin against Gram-positive strains by one to two dilutions
- activity compared with trovafloxacin (Gram-positive anaerobes; listed as gemifloxacin): compared favorably with trovafloxacin
- MIC [2]: ≤ 0.25 µg/mL
- activity (B. distasonis): only limited activity
- activity (Bacteroides fragilis): showed activity
- MIC (Fusobacterium naviforme): ≤ 2 µg/mL
